Earlier results in patent publication US20220313608A1, “TREATMENT OF BREAST CANCER” (SynCore Biotechnology Co., Ltd., priority 2015, published 2022).

Tested on: metastatic breast cancer patients
Settings: first-line, gemcitabine 1250 mg/m^2 days 1 and 8, paclitaxel 175 mg/m^2 triweekly

## CC(=O)O[C@H]1C(=O)[C@@]2(C)[C@H]([C@H](OC(=O)c3ccccc3)[C@]3(O)C[C@H](OC(=O)[C@H](O)[C@@H](NC(=O)c4ccccc4)c4ccccc4)C(C)=C1C3(C)C)[C@]1(OC(C)=O)CO[C@@H]1C[C@@H]2O [paclitaxel]
  frequency of alteration of hepatic function: 2%
